Experiments:
Conditions in all cases: 72 h
[1] = system: HepG2; assay: relative viability EC50 (midpoint between 100% and the lowest measured viability); higher = less toxic
[2] = system: U2OS; assay: as above
[3] = system: Vero E6; assay: as above
[4] = system: Caco-2; assay: as above
[5] = system: Calu-3; assay: as above
[6] = system: HepG2; assay: cell viability relative to DMSO; higher = less toxic
[7] = system: U2OS; assay: as above
[8] = system: Vero E6; assay: as above
[9] = system: Caco-2; assay: as above
[10] = system: Calu-3; assay: as above
[11] = system: HepG2; assay: drug sensitivity score (DSS) for viability; higher = more toxic; extreme values may be limits of the assay
[12] = system: U2OS; assay: as above
[13] = system: Vero E6; assay: as above
[14] = system: Caco-2; assay: as above
[15] = system: Calu-3; assay: as above

Structure (SMILES)	relative viability EC50 [1]	relative viability EC50 [2]	relative viability EC50 [3]	relative viability EC50 [4]	relative viability EC50 [5]	cell viability ([6]; 1 nM)	cell viability ([6]; 10 nM)	cell viability ([6]; 100 nM)	cell viability ([6]; 1000 nM)	cell viability ([6]; 10000 nM)	cell viability ([7]; 1 nM)	cell viability ([7]; 10 nM)	cell viability ([7]; 100 nM)	cell viability ([7]; 1000 nM)	cell viability ([7]; 10000 nM)	cell viability ([8]; 1 nM)	cell viability ([8]; 10 nM)	cell viability ([8]; 100 nM)	cell viability ([8]; 1000 nM)	cell viability ([8]; 10000 nM)	cell viability ([9]; 1 nM)	cell viability ([9]; 10 nM)	cell viability ([9]; 100 nM)	cell viability ([9]; 1000 nM)	cell viability ([9]; 10000 nM)	cell viability ([10]; 1 nM)	cell viability ([10]; 10 nM)	cell viability ([10]; 100 nM)	cell viability ([10]; 1000 nM)	cell viability ([10]; 10000 nM)	drug sensitivity score [11]	drug sensitivity score [12]	drug sensitivity score [13]	drug sensitivity score [14]	drug sensitivity score [15]
C=C1C[C@]23C[C@@]1(O)CC[C@H]2[C@@]12C=C[C@H](O)[C@@](C)(C(=O)O1)[C@H]2[C@@H]3C(=O)O [MD-920]	> 10 µM	> 10 µM	> 10 µM	> 10 µM	> 10 µM	95.5%	107%	94.2%	99%	104%	95.1%	96.1%	104%	101%	97%	100%	94.6%	86.7%	102%	116%	99.9%	85.4%	104%	95.1%	90.3%	96.1%	106%	108%	105%	91.1%	0	0	0	0	0
Nc1ccccc1S(N)(=O)=O [2-aminobenzenesulfonamide]	> 10 µM	> 10 µM	> 10 µM	> 10 µM	> 10 µM	99%	99.5%	87.1%	94.1%	102%	103%	105%	96.8%	98.4%	90.5%	99.5%	98.2%	101%	98.9%	93.7%	95.3%	99.4%	99.4%	95.5%	101%	90.9%	108%	101%	104%	80.5%	0	0	0	0	0.4
O=[N+]([O-])c1cccc2cn[nH]c12 [7-nitroindazole]	> 10 µM	> 10 µM	> 10 µM	> 10 µM	> 10 µM	102%	96.3%	88.2%	99.2%	98.1%	99.7%	102%	99.8%	104%	97.9%	103%	96.5%	99.6%	98.7%	98.7%	100%	94.4%	97.1%	106%	97.8%	102%	101%	99.4%	97.6%	93.4%	0	0	0	0	0
O=C(Nc1cc(-c2ccccc2)nn1-c1ccccc1)c1ccc([N+](=O)[O-])cc1 [VU29]	> 10 µM	> 10 µM	> 10 µM	> 10 µM	> 10 µM	105%	112%	108%	100%	90.2%	110%	101%	107%	99%	99%	100%	96.4%	101%	94.2%	88.6%	106%	96.2%	102%	95%	96.6%	102%	102%	107%	98.5%	111%	0	0	0.2	0	0
CC(C)[C@H](NS(=O)(=O)c1ccc(-c2ccc(Br)cc2)cc1)C(=O)O	> 10 µM	> 10 µM	> 10 µM	> 10 µM	> 10 µM	98.3%	109%	87.8%	110%	110%	101%	97.5%	99.5%	96.4%	102%	93.2%	95.9%	87.7%	92.2%	102%	96.3%	86.2%	93.5%	92.6%	89.8%	106%	102%	91.4%	104%	92.9%	0	0	0	0	0
COc1cc(OC)c(C(=O)CCCN2CCCC2)c(OC)c1 [buflomedil]	> 10 µM	> 10 µM	> 10 µM	> 10 µM	> 10 µM	90.5%	97.2%	97.3%	94.4%	99%	104%	99.3%	102%	98.8%	108%	95.7%	99%	94.1%	97.5%	108%	101%	103%	96.2%	96%	106%	87.5%	86.3%	90.2%	88.6%	101%	0	0	0	0	0
CNC(=O)ON(C(C)=O)C(=O)NC [caracemide]	> 10 µM	> 10 µM	> 10 µM	> 10 µM	> 10 µM	107%	104%	112%	93.8%	108%	94.8%	102%	99.3%	103%	106%	97.2%	96.9%	99.6%	94.7%	112%	89.6%	103%	95.8%	97.1%	99.7%	94%	102%	111%	101%	98.3%	0	0	0	0	0
CC1=C(CC(=O)O)c2cc(F)ccc2/C1=C\c1ccc([S+](C)[O-])cc1 (stereo not drawn) [sulindac]	> 10 µM	> 10 µM	> 10 µM	> 10 µM	> 10 µM	117%	90.2%	93.3%	84%	108%	101%	99.2%	97.4%	101%	97.4%	105%	102%	103%	92.9%	94.4%	96%	100%	103%	94.9%	85.1%	102%	113%	96.5%	98%	101%	0	0	0	0.6	0
CC1(C)O[C@@H]2C[C@H]3[C@@H]4CCC5=CC(=O)C=C[C@]5(C)[C@@]4(F)[C@@H](O)C[C@]3(C)[C@]2(C(=O)CO)O1 [TRIAMCINOLONE ACETONIDE]	> 10 µM	> 10 µM	> 10 µM	> 10 µM	> 10 µM	103%	91.3%	94.6%	101%	93%	99.4%	95.7%	94.6%	90.7%	95.2%	102%	99%	95.3%	97.4%	100%	94.2%	96.2%	96.8%	89%	93.1%	98.4%	95.4%	87.6%	103%	106%	0	0	0	0	0
O=C1CC2(CCCC2)CC(=O)N1CCCCNC[C@H]1COc2ccccc2O1 (racemic)	> 10 µM	> 10 µM	> 10 µM	> 10 µM	> 10 µM	99%	112%	106%	101%	110%	104%	102%	101%	104%	97.8%	103%	101%	101%	97%	98.6%	97.8%	98.2%	93.8%	98.3%	86%	96.9%	103%	96.9%	94.2%	85.3%	0	0	0	0.3	0.3
CCC[C@H](Nc1nc(-c2ccc(NC(=O)NCC)c(OC)c2)ncc1C)c1cccnc1 [CYT-997]	0.0687 µM	0.0761 µM	0.303 µM	0.198 µM	0.0547 µM	101%	106%	51.8%	36.3%	33.3%	97.2%	102%	45.6%	19.1%	18.2%	95.7%	100%	98.5%	22%	23.7%	97.9%	93.5%	84%	42.6%	38.2%	99.4%	96%	54.4%	37%	37.5%	17.9	21.3	14.4	12.4	17.4
Cc1c[nH]c(=O)n(CCCN2CCN(c3ccccc3OCC(F)(F)F)CC2)c1=O	> 10 µM	> 10 µM	> 10 µM	–	> 10 µM	98.7%	96.2%	95.9%	98.2%	103%	101%	102%	100%	101%	102%	102%	96.2%	99.2%	98.7%	105%	–	–	–	–	–	90.5%	99%	99.1%	96.6%	87.4%	0	0	0	–	0.3
CCn1nc(C)c2c1C(c1ccccc1)=NCC(=O)N2 [ripazepam]	> 10 µM	> 10 µM	> 10 µM	> 10 µM	> 10 µM	106%	100%	98.9%	92.2%	113%	96.4%	99.1%	93.2%	102%	98.2%	95.6%	99.9%	104%	100%	97.1%	96.9%	103%	104%	101%	124%	97.4%	102%	95.6%	109%	95.8%	0	0	0	0	0
O=C(O)c1ccccc1C(=O)Nc1ccc(S(=O)(=O)Nc2nccs2)cc1 [phthalylsulfathiazole]	> 10 µM	> 10 µM	> 10 µM	> 10 µM	> 10 µM	87.5%	107%	115%	111%	112%	97.9%	98%	102%	96.8%	99.7%	92.2%	98.9%	94.9%	94.5%	108%	106%	93.9%	94.1%	102%	93.7%	105%	86.8%	106%	107%	107%	0	0	0	0	0

From the supplement of paper PMC13380429
